Measured values reported in PubChem BioAssay (NCI).
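GI50: concentration for 50% inhibition of growth. TGI marks complete inhibition of growth.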

Assays:
Assay in all cases: NCI tumour cell line growth inhibition, 384-well format
[1] = system: SK-MEL-28 melanoma
[2] = system: A549 NSCLC
[3] = system: ACHN renal
[4] = system: UACC-62 melanoma
[5] = system: SN12C renal
[6] = system: T-47D breast
[7] = system: MCF7 breast
[8] = system: NCI-H460 NSCLC
[9] = system: IGROV1 ovarian
[10] = system: MDA-MB-435 melanoma
[11] = system: KM12 colon
[12] = system: OVCAR-8 ovarian
[13] = system: HT29 colon
[14] = system: NCI-H23 lung
[15] = system: DU-145 prostate
[16] = system: SW-620 colon
[17] = system: SNB-75 CNS
[18] = system: EKVX NSCLC
[19] = system: HCT-15 colon
[20] = system: 786-0 renal
[21] = system: TK-10 renal
[22] = system: SK-OV-3 ovarian
[23] = system: OVCAR-3 ovarian
[24] = system: SK-MEL-5 melanoma
[25] = system: HCC-2998 colon
[26] = system: MDA-MB-468 breast
[27] = system: LOX IMVI melanoma
[28] = system: NCI/ADR-RES ovarian
[29] = system: COLO 205 colon
[30] = system: UACC-257 melanoma
[31] = system: SF-295 CNS
[32] = system: MDA-MB-231 breast
[33] = system: SK-MEL-2 melanoma
[34] = system: RPMI-8226 leukemia
[35] = system: SF-268 CNS
[36] = system: HOP-62 NSCLC
[37] = system: NCI-H522 lung
[38] = system: BT-549 breast
[39] = system: MALME-3M melanoma
[40] = system: OVCAR-4 ovarian
[41] = system: PC-3 prostate
[42] = system: U251 glioblastoma
[43] = system: A498 renal
[44] = system: K-562 leukemia
[45] = system: RXF 393 renal
[46] = system: CAKI-1 renal
[47] = system: HCT-116 colon
[48] = system: NCI-H226 lung
[49] = system: SNB-19 CNS
[50] = system: SF-539 CNS
[51] = system: M14 melanoma
[52] = system: CCRF-CEM leukemia
[53] = system: NCI-H322M lung
[54] = system: OVCAR-5 ovarian
[55] = system: SR leukemia
[56] = system: HS 578T breast
[57] = system: HL-60(TB) leukemia
[58] = system: MOLT-4 leukemia

For Cc1[nH]ncc1-c1cc2nc(C3CC4CCN3CC4)[nH]c(=O)c2s1 (stereo not given), the GI50 [1] was 6.67 µM, the TGI [1] was 23.2 µM and the GI50 [2] was 2860 nM. For the same compound, the TGI [2] was > 100 µM, the GI50 [3] was 1960 nM and the TGI [3] was > 100 µM. It also gave a GI50 [4] of 2880 nM, a TGI [4] of 15.5 µM and a GI50 [5] of 1780 nM. The TGI [5] was 17.9 µM, the GI50 [6] was 24.9 µM and the TGI [6] was > 100 µM. For the same compound, the GI50 [7] was 3.55 µM, the TGI [7] was > 100 µM and the GI50 [8] was 1190 nM. For the same compound, the TGI [8] was 5.55 µM, the GI50 [9] was 3.76 µM and the TGI [9] was > 51.1 µM. It also gave a GI50 [10] of 9.26 µM, a TGI [10] of 28 µM and a GI50 [11] of 3.22 µM. For the same compound, the TGI [11] was 25.7 µM, the GI50 [12] was 8.87 µM and the TGI [12] was > 100 µM. The GI50 [13] was 14.4 µM, the TGI [13] was > 100 µM and the GI50 [14] was 1360 nM. For the same compound, the TGI [14] was 6.79 µM, the GI50 [15] was 876 nM and the TGI [15] was > 100 µM. The GI50 [16] was 333 nM, the GI50 [17] was 2060 nM and the TGI [17] was 7.46 µM. The GI50 [18] was 5.93 µM, the TGI [18] was 42.9 µM and the GI50 [19] was 2740 nM. For the same compound, the TGI [19] was > 100 µM, the GI50 [20] was 2750 nM and the TGI [20] was 55.1 µM. The GI50 [21] was 9.31 µM, the TGI [21] was > 79.3 µM and the GI50 [22] was 17.8 µM. For the same compound, the TGI [22] was > 100 µM, the GI50 [23] was 2930 nM and the TGI [23] was 18.3 µM. The GI50 [24] was 2180 nM, the TGI [24] was 7.13 µM and the GI50 [25] was 3.48 µM. It also gave a TGI [25] of 24.2 µM, a GI50 [26] of 1170 nM and a TGI [26] of 20.9 µM. For the same compound, the GI50 [27] was 888 nM, the TGI [27] was 14.6 µM and the GI50 [28] was 16.2 µM. The TGI [28] was 65.8 µM, the GI50 [29] was 39.6 nM and the TGI [29] was 198 nM. For the same compound, the GI50 [30] was 15.2 µM, the TGI [30] was 43.8 µM and the GI50 [31] was 1190 nM. The TGI [31] was 49.4 µM, the GI50 [32] was 7.14 µM and the TGI [32] was > 100 µM. For the same compound, the GI50 [33] was 6.55 µM, the TGI [33] was 18.4 µM and the GI50 [34] was 10.3 µM. For the same compound, the TGI [34] was 22 µM, the GI50 [35] was 1420 nM and the TGI [35] was 4.23 µM. For the same compound, the GI50 [36] was 2310 nM, the TGI [36] was 16.1 µM and the GI50 [37] was 381 nM. For the same compound, the TGI [37] was 7.5 µM, the GI50 [38] was 1850 nM and the TGI [38] was 6.54 µM. The GI50 [39] was 11.1 µM, the TGI [39] was 29.7 µM and the GI50 [40] was 21.4 µM. The TGI [40] was 74.9 µM, the GI50 [41] was 8.96 µM and the TGI [41] was > 100 µM. The GI50 [42] was 1380 nM, the TGI [42] was 74.2 µM and the GI50 [43] was 82.8 nM. For the same compound, the TGI [43] was 70.7 µM, the GI50 [44] was 5.24 µM and the TGI [44] was > 100 µM. It also gave a GI50 [45] of 2270 nM, a TGI [45] of 7.19 µM and a GI50 [46] of 1560 nM. For the same compound, the TGI [46] was > 100 µM, the GI50 [47] was 2160 nM and the TGI [47] was > 100 µM. The GI50 [48] was 2530 nM, the TGI [48] was 15.9 µM and the GI50 [49] was 9.66 µM. For the same compound, the TGI [49] was > 100 µM, the GI50 [50] was 1310 nM and the TGI [50] was 7.72 µM. The GI50 [51] was 5.7 µM, the TGI [51] was 19.4 µM and the GI50 [52] was 138 nM. For the same compound, the TGI [52] was 905 nM, the GI50 [53] was 6.94 µM and the TGI [53] was 34.3 µM. The GI50 [54] was 4.24 µM, the TGI [54] was > 100 µM and the GI50 [55] was 178 nM. It also gave a TGI [55] of 366 nM, a GI50 [56] of 1480 nM and a TGI [56] of 3.32 µM. For the same compound, the GI50 [57] was 562 nM, the TGI [57] was 1800 nM and the GI50 [58] was 1140 nM. The TGI [58] was 11.3 µM.
